Assay results published in patent EP2022493A1, “Composition comprising at least one optically active phthalamide derivative for controlling animal parasites” (Bayer CropScience AG, priority 2007, dated 2009).

Experiments:
Boophilus microplus = Boophilus microplus - test (injection into adult ticks); format: in vivo; settings: application rate of 20 µg/animal; injected into the abdomen of adult ticks; seven days
Procedure: Boophilus microplus - test Solvent: dimethylsulfoxide To produce a suitable preparation of active compound, 1 part by weight of active compound is mixed with the stated amount of solvent, and the concentrate is diluted with containing solvent to the desired concentration. Adult ticks (Boophilus microplus) are treated by injected with compound solution of the desired concentration into the abdomen. Ticks are transferred into replica plates and incubated in a climate chamber for seven days. Eggs which are not clearly fertile or infertile are further incubated for another 35 days until larvae hatch from the untreated controls. After the specified period of time, the laying of fertile eggs in % is determined. 100 % means that all eggs have been fertile; 0 % means that none of the eggs have been fertile.

Lucilia cuprina larvae = test: Lucilia cuprina - test (larvae); format: in vivo; settings: in Ovis aries, read-out: activity (mortality in %)
Procedure: (§1) Solvent: dimethyl sulfoxide
(§2) To produce a suitable preparation of active compound, 10 mg of active compound are dissolved in 0.5 ml solvent, and the concentrate is diluted with water to the desired concentration.
Approximately 20 -30 (Lucilia cuprina larvae) are transferred into a test tube containing 1cm^3 of minced horse meat and 0.5 ml aqueous dilution of test compound.
After the specified period of time, mortality in % is determined. 100 % means that all the larvae have been killed; 0 % means that none of the larvae have been killed.

[1] = Determination of the logP values by HPLC on reversed-phase column (C 18); format: physicochemical
Procedure: Determination of the logP values:
The lambda max values were determined in the maxima of the chromatographic signals using the UV spectra from 190 nm to 400 nm.

Musca domestica = Musca domestica - test; format: in vivo; settings: application rate of 100ppm, adults
Procedure: as §1, §2
Prior to the assay, a piece or kitchen sponge is soaked with a mixture of sugar and compound solution and placed into a container. 10 adults (Musca domestica) are placed into the container and closed with a perforated lid.
After the specified period of time, mortality in % is determined. 100 % means that all the flies have been killed; 0 % means that none of the flies have been killed.

[2] = 0.1% aqueous phosphoric acid/acetonitrile, method [a]: 0.1% aqueous phosphoric acid and acetonitrile at pH 2.3, linear gradient from 10 to 95 % (v/v) acetonitrile, HPLC reversed-phase C 18, 40 °C
[3] = 0.1% aqueous phosphoric acid/acetonitrile, HPLC, reversed-phase C 18, 40 °C, [a] 0.1% aqueous phosphoric acid and acetonitrile at pH 2.3, linear gradient from 10 to 95 % (v/v) acetonitrile
[4] = 0.001 m aqueous nh4hco3/acetonitrile, method [c]: 0.001 molar aqueous NH4HCO3 solution and acetonitrile at pH 7.8, linear gradient from 10 % to 95 % acetonitrile (v/v), HPLC reversed-phase C 18, 40 °C
[5] = 0.001 m aqueous nh4hco3/acetonitrile, HPLC, reversed-phase C 18, 40 °C, [c] 0.001 molar aqueous NH4HCO3 solution and acetonitrile at pH 7.8, linear gradient from 10 % to 95 % acetonitrile (v/v)

Row | SMILES | activity (laying of fertile eggs in %) (Boophilus microplus) | mortality at 100 ppm (Lucilia cuprina larvae) | chromatographic logP [1, 2] | mortality at 100 ppm (Musca domestica) | chromatographic logP [1, 3] | chromatographic logP [1, 4] | chromatographic logP [1, 5]
1 | CSC[C@H](C)NC(=O)c1c(I)cccc1C(=O)Nc1ccc(C(F)(C(F)(F)F)C(F)(F)F)c(F)c1C [Compound 423] | ≥ 80% | ≥ 80% | 4.41 | ≥ 80% |  |  | 
2 | CCS(=O)(=O)C[C@H](C)NC(=O)c1c(Br)cccc1C(=O)Nc1ccc(C(F)(F)C(F)(F)F)c(Cl)c1C [Compound 138] | ≥ 80% | ≥ 80% | 3.19 |  |  |  | 
3 | Cc1c(NC(=O)c2cccc(I)c2C(=O)N[C@@H](C)C[S+](C)[O-])ccc(C(F)(C(F)(F)F)C(F)(F)F)c1F (stereo partly shown) [Compound 331] | ≥ 80% | ≥ 80% |  |  | 2.78 |  | 
4 | CSC[C@H](C)NC(=O)c1c(Br)cccc1C(=O)Nc1ccc(C(F)(F)C(F)(F)F)c(F)c1C [Compound 388] | ≥ 80% | ≥ 80% | 3.93 |  |  |  | 
5 | CC[S+]([O-])C[C@H](C)NC(=O)c1c(I)cccc1C(=O)Nc1ccc(C(F)(C(F)(F)F)C(F)(F)F)c(F)c1C (stereo partly shown) [Compound 339] | ≥ 80% | ≥ 80% |  |  | 2.97 |  | 
6 | CCSC[C@H](C)NC(=O)c1c(Cl)cccc1C(=O)Nc1ccc(C(F)(F)C(F)(F)F)c(F)c1C [Compound 380] |  |  | 4.21 |  |  |  | 
7 | CCSC[C@H](C)NC(=O)c1c(I)cccc1C(=O)Nc1ccc(C(F)(C(F)(F)F)C(F)(F)Br)cc1C (stereo partly shown) [Compound 154] | ≥ 80% | ≥ 80% | 4.68 |  |  | 4.71 | 
8 | CCS(=O)(=O)C[C@H](C)NC(=O)c1c(I)cccc1C(=O)Nc1ccc(C(F)(C(F)F)C(F)(F)F)cc1F (stereo partly shown) [Compound 307] |  | ≥ 80% |  | ≥ 80% | 2.89 |  | 2.94
9 | Cc1c(NC(=O)c2cccc(Br)c2C(=O)N[C@@H](C)CS(C)(=O)=O)ccc(C(F)(F)C(F)(F)F)c1F [Compound 389] | ≥ 80% | ≥ 80% | 2.86 |  |  |  | 
10 | Cc1cc(C(C(F)(F)F)C(F)(F)F)ccc1NC(=O)c1cccc(I)c1C(=O)N[C@@H](C)CS(C)(=O)=O [Compound 48] | ≥ 80% | ≥ 80% |  | ≥ 80% |  |  | 
11 | Cc1cc(C(F)(C(F)(F)F)C(F)(F)F)ccc1NC(=O)c1cccc(Br)c1C(=O)N[C@@H](C)CS(C)(=O)=O [Compound 129] | ≥ 80% | ≥ 80% |  |  |  |  | 
12 | Cc1c(NC(=O)c2cccc(I)c2C(=O)N[C@@H](C)CS(C)(=O)=O)ccc(C(F)(F)C(F)(F)F)c1Cl [Compound 186] |  | ≥ 80% |  |  |  |  | 
13 | Cc1cc(C(F)(C(F)(F)F)C(F)(F)F)ccc1NC(=O)c1cccc(I)c1C(=O)N[C@@H](C)CS(C)(=O)=O [Compound 1] | ≥ 80% | ≥ 80% | 3.18 | ≥ 80% |  | 3.2 | 
14 | CCS(=O)(=O)C[C@H](C)NC(=O)c1c(I)cccc1C(=O)Nc1ccc(C(C(F)F)C(F)(F)F)cc1Br (stereo partly shown) [Compound 299] | ≥ 80% | ≥ 80% |  | ≥ 80% | 2.87 |  | 2.92
15 | CCS(=O)(=O)C[C@H](C)NC(=O)c1c(I)cccc1C(=O)Nc1ccc(C(F)(C(F)(F)F)C(F)(F)Br)cc1C (stereo partly shown) [Compound 194] |  |  |  |  | 3.49 |  | 3.47
16 | Cc1cc(C(F)(C(F)(F)F)C(F)(F)F)ccc1NC(=O)c1cccc(Cl)c1C(=O)N[C@@H](C)CS(C)(=O)=O [Compound 80] | ≥ 80% | ≥ 80% |  | ≥ 80% |  |  | 
17 | CSC[C@H](C)NC(=O)c1c(Br)cccc1C(=O)Nc1ccc(C(F)(C(F)F)C(F)(F)F)cc1Br (stereo partly shown) [Compound 267] | ≥ 80% | ≥ 80% |  |  | 3.81 |  | 
